Structures can show the parent of a compound that is named as a salt. Where two headings read alike, the source gives them in different places.
Columns and labels:
[1] = High humidity test (room temperature, relative humidity 75±5%); assay type: physicochemical; settings: 25° C.
Procedure: Samples were evenly spread out and placed in open culture dishes, wherein the thickness thereof was less than 5 mm, put in a thermostatic drying chamber at room temperature (25° C.) with relative humidity of 75±5%. Then the samples were taken on the fifth and tenth day respectively for determination, compared with the result of day 0, results were listed in the table below

[2] = Light exposure test (4500±500 Lx); assay type: physicochemical; settings: light 4500±500 Lx
Description: Samples were evenly spread out and placed in open culture dishes and the thickness thereof was less than 5 mm, then distances were adjusted until the illumination intensity was 4500±500 Lx, samples were taken on the fifth and tenth day respectively for determination, compared with the result of day 0, results were listed in the table below: […]

[3] = assay type: physicochemical; settings: for amount of solvent (ml), 0.1N HCl / amount of solvent (ml), 0.1N NaOH / amount of solvent (ml), anhydrous ethanol / amount of solvent (ml), methanol / amount of solvent (ml), water: to dissolve 1 g of sample
[4] = High temperature test (60° C.); assay type: physicochemical; settings: sealed ampoules
Procedure: Samples were sealed in clean glass ampoules and put in 60° C. thermostatic drying chamber, then they were taken on the fifth and tenth day respectively for determination, compared with the result of day 0, results were listed in the table below:
Samples were sealed in clean glass ampoules and put in 60° C. thermostatic drying chamber, then they were taken on the fifth and tenth day respectively for determination, compared with the result of day 0, results were listed in the table below

[5] = Stability analysis, overall conclusion in words; assay type: physicochemical; settings: from light, high temperature, high humidity and acceleration tests
[6] = Acceleration test (40° C., relative humidity 75%); assay type: physicochemical
Procedure: Samples were sealed with polyethylene plastic bags, placed in the thermostatic drying chamber at 40±2° C. with relative humidity of 75±5% for 3 months. Then the samples were taken at the end of the first, second and third month respectively for determination, compared with the result of day 0, results were listed in the table below: […]

[7] = Bioavailability: blood concentration-time from plasma radioactivity; assay type: in vivo; settings: mice, intragastric 30 mg/kg
Procedure: 10 mice were randomly divided into 2 groups, 5 per group, intragastricly administered 3H-TD fumarate and Tenofovir Disoproxil Fumarate at 30 mg/kg with radio dose of 135 μCi/kg respectively. Plasm samples in different times were taken to measure the radioactivity, which was then converted into the plasma concentration.
Comparison of the blood concentration (ug/ml)-time of 3H-TD fumarate and Tenofovir Disoproxil Fumarate.

[8] = Acute toxicity test, median lethal dose (LD50); settings: both sexes, mouse, in vivo, oral, mice, infused into the stomach, observed 14 days
Procedure: TD fumarate and TD crystalline form A were dissolved in 0.1M citric acid aqueous solution respectively, 140 healthy mice with 18˜22 g body-weight was selected, randomly divided into 14 groups, 10 per group, and the number of male and female mice were equal.
Following the preliminary test, TD fumarate and TD crystalline form A were administered to 7 different dosing groups by infusing into the stomach, observed for 14 days consecutively to investigate the toxic reaction and death cases of mice and then LD50 was calculated.

Duck Hepatitis B Virus = assay: Anti-viral (anti-HBV) test in vivo, DHBV-DNA level by PCR; set-up: species or system GaoYou pockmark ducks; settings: ducks, once a day, day 0 level as base line of 100
Procedure: Two-month old pockmark ducks vertically infected with Duck Hepatitis B Virus were selected as animal models to conduct anti-HBV test in vivo, the efficacy was investigated. 80 GaoYou pockmark ducks were divided randomly into. 8 groups, 10 ducks per groups, three groups were given TD fumarate at the dosage of 5, 15, 45 mg/kg once a day respectively, other three groups were given Tenofovir Disoproxil Fumarate at the dosage of 5, 15, 45 mg/kg once a day respectively, other one group was given Adefovir Dipivoxil at the dosage of 15 mg/kg once a day and the remaining group was blank control group. All the groups were administered for 28 days, and blood samples were taken every 7 days to determine the inhibitory effect to the DHBV-DNA level by PCR, inhibition rate was listed in the following table.

C[C@H](Cn1cnc2c(N)ncnc21)OCP(=O)(OCOC(=O)C(C)(C)C)OCOC(=O)C(C)(C)C [TD crystalline form B, 9-[2-(R)-[bis[pivaloyloxymethoxy]-phosphinylmethoxy]propyl]adenine]
content (%) ([1]; day 0): 99.6%
Weight gain after moisture absorption (%) ([1]; day 5): 0%
content (%) ([1]; day 5): 98.2%
Weight gain after moisture absorption (%) ([1]; day 10): 0.2%
content (%) ([1]; day 10): 96.9%
content (%) ([2]; day 0): 99.2%
content (%) ([2]; day 5): 98.8%
content (%) ([2]; day 10): 98.7%
solubility conclusion, 0.1N HCl [3]: soluble
solubility conclusion, 0.1N NaOH [3]: slightly
solubility conclusion, anhydrous ethanol [3]: freely soluble
solubility conclusion, methanol [3]: freely soluble
amount of solvent (ml), 0.1N HCl [3]: 27.3 mL
amount of solvent (ml), 0.1N NaOH [3]: 790 mL
amount of solvent (ml), anhydrous ethanol [3]: 6.0 mL
amount of solvent (ml), methanol [3]: 1.5 mL
amount of solvent (ml), water [3]: 840 mL
solubility conclusion, water [3]: slightly
content (%) ([4]; day 0): 98.8%
content (%) ([4]; day 5): 97.7%
content (%) ([4]; day 10): 97.0%
stability, overall conclusion in words [5]: good stabilities
content (%) ([6]; end of month 1): 95.8%
content (%) ([6]; end of month 2): 92.7%
content (%) ([6]; end of month 3): 88.7%

C[C@H](Cn1cnc2c(N)ncnc21)OCP(=O)(OCOC(=O)C(C)(C)C)OCOC(=O)C(C)(C)C.O=C(O)/C=C/C(=O)O [TD fumarate]
blood concentration ([7]; 10 min): 730 ng/mL
blood concentration ([7]; 30 min): 1440 ng/mL
blood concentration ([7]; 45 min): 1770 ng/mL
blood concentration ([7]; 60 min): 2520 ng/mL
blood concentration ([7]; 90 min): 1340 ng/mL
blood concentration ([7]; 120 min): 1030 ng/mL
blood concentration ([7]; 180 min): 940 ng/mL
blood concentration ([7]; 240 min): 730 ng/mL
blood concentration ([7]; 360 min): 550 ng/mL
blood concentration ([7]; 480 min): 340 ng/mL
content (%) ([1]; day 0): 99.2%
Weight gain after moisture absorption (%) ([1]; day 5): 0%
content (%) ([1]; day 5): 99.1%
Weight gain after moisture absorption (%) ([1]; day 10): 0%
content (%) ([1]; day 10): 99.1%
content (%) ([2]; day 0): 99.2%
content (%) ([2]; day 5): 99.2%
content (%) ([2]; day 10): 99.1%
LD50 at 14 days ([8]; read-out: LD50): 6050 mg/kg
LD50 at 14 days ([8]; read-out: LD50, 95% confident limit): 4500 to 7870 mg/kg
DHBV-DNA level, First week (Duck Hepatitis B Virus; 5 mg/ml group): 92 ± 7
DHBV-DNA level, Fourth week (Duck Hepatitis B Virus; 5 mg/ml group): 40 ± 5
DHBV-DNA level, Second week (Duck Hepatitis B Virus; 5 mg/ml group): 71 ± 5
DHBV-DNA level, Third week (Duck Hepatitis B Virus; 5 mg/ml group): 50 ± 9
DHBV-DNA level, First week (Duck Hepatitis B Virus; 15 mg/ml group): 78 ± 9
DHBV-DNA level, Fourth week (Duck Hepatitis B Virus; 15 mg/ml group): 25 ± 7
DHBV-DNA level, Second week (Duck Hepatitis B Virus; 15 mg/ml group): 59 ± 8
DHBV-DNA level, Third week (Duck Hepatitis B Virus; 15 mg/ml group): 39 ± 7
DHBV-DNA level, First week (Duck Hepatitis B Virus; 45 mg/ml group): 65 ± 6
DHBV-DNA level, Fourth week (Duck Hepatitis B Virus; 45 mg/ml group): 16 ± 8
DHBV-DNA level, Second week (Duck Hepatitis B Virus; 45 mg/ml group): 43 ± 5
DHBV-DNA level, Third week (Duck Hepatitis B Virus; 45 mg/ml group): 25 ± 10
solubility conclusion, 0.1N HCl [3]: soluble
solubility conclusion, 0.1N NaOH [3]: soluble
solubility conclusion, anhydrous ethanol [3]: freely soluble
solubility conclusion, methanol [3]: freely
amount of solvent (ml), 0.1N HCl [3]: 18.5 mL
amount of solvent (ml), 0.1N NaOH [3]: 65 mL
amount of solvent (ml), anhydrous ethanol [3]: 15.5 mL
amount of solvent (ml), methanol [3]: 7.4 mL
amount of solvent (ml), water [3]: 120 mL
solubility conclusion, water [3]: soluble
water solubility compared with other solid TD forms, in words [3]: better water solubility
content (%) ([4]; day 0): 99.5%
content (%) ([4]; day 5): 99.5%
content (%) ([4]; day 10): 99.4%
stability, overall conclusion in words [5]: good solubility and stabilities
content (%) ([6]; end of month 1): 99.0%
content (%) ([6]; end of month 2): 98.7%
content (%) ([6]; end of month 3): 98.5%
content (%) ([6]; month 0): 99.3%

CC(Cn1cnc2c(N)ncnc21)OCP(=O)(OCOC(=O)C(C)(C)C)OCOC(=O)C(C)(C)C.CC1(C)CCC2(C(=O)O)CCC3(C)C(=CCC4C5(C)CCC(O)C(C)(C)C5CCC43C)C2C1 (stereo not shown) [TD oleanolate]
content (%) ([1]; day 0): 99.2%
Weight gain after moisture absorption (%) ([1]; day 5): 0%
content (%) ([1]; day 5): 99.1%
Weight gain after moisture absorption (%) ([1]; day 10): 0%
content (%) ([1]; day 10): 99.1%
content (%) ([2]; day 0): 99.2%
content (%) ([2]; day 5): 99.0%
content (%) ([2]; day 10): 99.3%
solubility conclusion, 0.1N HCl [3]: not
solubility conclusion, 0.1N NaOH [3]: not soluble
solubility conclusion, anhydrous ethanol [3]: slightly
solubility conclusion, methanol [3]: slightly
amount of solvent (ml), 0.1N HCl [3]: >1000 mL
amount of solvent (ml), 0.1N NaOH [3]: >1000 mL
amount of solvent (ml), anhydrous ethanol [3]: 650 mL
amount of solvent (ml), methanol [3]: 760 mL
amount of solvent (ml), water [3]: >1000 mL
solubility conclusion, water [3]: not soluble
content (%) ([4]; day 0): 99.0%
content (%) ([4]; day 5): 98.9%
content (%) ([4]; day 10): 98.6%
content (%) ([6]; end of month 1): 98.7%
content (%) ([6]; end of month 2): 98.5%
content (%) ([6]; end of month 3): 98.4%
content (%) ([6]; month 0): 99.2%

CC(C)OC(=O)OCOP(=O)(CO[C@H](C)Cn1cnc2c(N)ncnc21)OCOC(=O)OC(C)C [Tenofovir Disoproxil Fumarate]
DHBV-DNA level, First week (Duck Hepatitis B Virus; 5 mg/ml group): 90 ± 9
DHBV-DNA level, Fourth week (Duck Hepatitis B Virus; 5 mg/ml group): 50 ± 7
DHBV-DNA level, Second week (Duck Hepatitis B Virus; 5 mg/ml group): 79 ± 5
DHBV-DNA level, Third week (Duck Hepatitis B Virus; 5 mg/ml group): 65 ± 6
DHBV-DNA level, First week (Duck Hepatitis B Virus; 15 mg/ml group): 83 ± 6
DHBV-DNA level, Fourth week (Duck Hepatitis B Virus; 15 mg/ml group): 37 ± 8
DHBV-DNA level, Second week (Duck Hepatitis B Virus; 15 mg/ml group): 66 ± 7
DHBV-DNA level, Third week (Duck Hepatitis B Virus; 15 mg/ml group): 53 ± 5
DHBV-DNA level, First week (Duck Hepatitis B Virus; 45 mg/ml group): 75 ± 9
DHBV-DNA level, Fourth week (Duck Hepatitis B Virus; 45 mg/ml group): 25 ± 7
DHBV-DNA level, Second week (Duck Hepatitis B Virus; 45 mg/ml group): 43 ± 8
DHBV-DNA level, Third week (Duck Hepatitis B Virus; 45 mg/ml group): 35 ± 6

C[C@H](Cn1cnc2c(N)ncnc21)OCP(=O)(OCOC(=O)C(C)(C)C)OCOC(=O)C(C)(C)C [amorphous TD, 9-[2-(R)-[bis[pivaloyloxymethoxy]-phosphinylmethoxy]propyl]adenine]
content (%) ([1]; day 0): 99.0%
Weight gain after moisture absorption (%) ([1]; day 5): 1.0%
content (%) ([1]; day 5): 97.9%
Weight gain after moisture absorption (%) ([1]; day 10): 2.3%
content (%) ([1]; day 10): 95.8%
content (%) ([2]; day 0): 98.5%
content (%) ([2]; day 5): 98.3%
content (%) ([2]; day 10): 98.1%
solubility conclusion, 0.1N HCl [3]: soluble
solubility conclusion, 0.1N NaOH [3]: slightly
solubility conclusion, anhydrous ethanol [3]: freely soluble
solubility conclusion, methanol [3]: freely soluble
amount of solvent (ml), 0.1N HCl [3]: 25.2 mL
amount of solvent (ml), 0.1N NaOH [3]: 613 mL
amount of solvent (ml), anhydrous ethanol [3]: 5.6 mL
amount of solvent (ml), methanol [3]: 2.0 mL
amount of solvent (ml), water [3]: 380 mL
solubility conclusion, water [3]: soluble
water solubility compared with other solid TD forms, in words [3]: better solubility than crystalline TD in water
content (%) ([4]; day 0): 98.5%
content (%) ([4]; day 5): 97.5%
content (%) ([4]; day 10): 97.1%
content (%) ([6]; end of month 1): 92.3%
content (%) ([6]; end of month 2): 88.9%
content (%) ([6]; end of month 3): 82.8%
content (%) ([6]; month 0): 99.0%

— US8507463B2, “Nucleotide analogue prodrug and the preparation thereof” (Jiangsu Chia Tai Tianqing Pharmaceutical Co., Ltd., priority 2005, dated 2013)
